# Laboratory results as given in patent publication US9587225B2, “Low-molecular-compound for improving production, maintenance and proliferation of pluripotent stem cells, composition comprising the same, and culture method” (KOREA RESEARCH INSTITUTE OF BIOSCIENCE AND BIOTECHNOLOGY, priority 2012, dated 2017).
# Key:
# [1] = system: Nanog, Oct4, Rex1, p53, p21 and p16; experiment: Expression of pluripotency markers and p53, p21, p16 during reprogramming (real-time RT-PCR, immunostaining); format: cell-based, human
# Experimental: In still another example of the present invention, in order to examine whether the novel compound RSC-133 can promote kinetics in a culture process for reprogramming to shorten the time required for the induction of reprogramming, the expression patterns of pluripotency-specific markers were analyzed at various time points.
# Total RNA was isolated from the produced cells using RNeasy Mini kit (Qiagen, Valencia, Calif.), and then reverse-transcribed using SuperScript First-strand synthesis system kit (Invitrogen) according to the manufacturer's instruction. […]
# In order to examine whether RSC-133 can increase the rate of reprogramming, the relative levels of mRNA expressed during the reprogramming process were measured. […] Thus, it can be seen that RSC-133 can increase the efficiency of reprogramming and also can be involved in the reprogramming process to stimulate kinetics.
# [2] = system: human skin fibroblasts (hFFs); experiment: Reprogramming of human skin fibroblasts, AP-positive colony count; format: cell-based
# Experimental: In order to screen low-molecular-weight compounds that promote the production of reprogrammed stem cells, human fibroblasts were transduced with reprogramming viruses (Oct4, Sox2, Klf4, and c-Myc). After 5 days, the cells were seeded on Matrigel-coated plates, and then cultured in MEF-conditioned medium (CM) containing each of low-molecular-weight compounds until colonies having a morphology similar to that of human embryonic stem cells were formed. After 15 days, alkaline phosphatase (AP) activity was measured, and compounds that increased the efficiency of reprogramming compared to that of a control group were selected. […] The values shown on the graph are mean values. The data are expressed as mean±SD (n=3).
# For production of iPSC, human skin fibroblasts (hFFs) and mouse embryonic fibroblasts (MEFs) were seeded on gelatin-coated 6-well plates at a concentration of 1×10^5 cells per well at one day before transfection and were transfected with virus in the presence of polybrene (8 μg/ml). At 5 days after the transfection, hFFs or MEFs were collected by trypsin treatment and seeded again on Matrigel-coated 6-well plates at a concentration of 5 to 6×10^4 cells per well in order to perform experiments in feeder-free conditions. The medium was replaced with MEF-CM medium containing 10 ng/ml of bFGF. MEF-CM was prepared as γ-irradiated MEF according to a known method (Xu C. Nat Biotechnol 19, 971-974), and […] bFGF was added to MEF-CM. The medium was replaced at 2-day intervals. At 20 days after the transfection, hESC-like colonies were collected and transferred to 12-well plates having MEFs as feeder cells, and then continuously cultured using the hESC culture method described in Example 2.
# The OSKM reprogramming factor virus was produced according to the method of Example 3. In order to screen low-molecular-weight compounds that increase the efficiency of reprogramming, hFFs and mouse embryonic fibroblasts (OG2-MEF; hemizygous for the Oct4-GFP transgene) were seeded on gelatin-coated 6-well plates at a concentration of 1×10^5 cells at one day before transfection, and then transfected with virus in the presence of polybrene (8 μg/ml). At 5 days after the transfection, hFFs or MEFs were collected by trypsin treatment and seeded again on Matrigel- or gelatin-coated 12-well plates at a concentration of 3.5×10^4 cells per well in order to perform experiments under feeder-free conditions. The medium was replaced with 10 ng/ml bFGF-containing MEF-CM or mouse embryonic stem cell culture medium, and then the prepared low-molecular-weight compounds that are trans-3-indoleacrylic based compounds were added at various concentrations. The culture medium containing each of the low-molecular-weight compounds was replaced at 2-day intervals. At 15 days after the transfection, the number of either colonies showing AP activity or colonies expressing endogenous Oct4 GFP fluorescence was measured to determine the efficiency of reprogramming.
# ALP staining was performed using a commercial ALP kit (Sigma) according to the manufacturer's instruction. Images of ALP-positive cells were recorded using HP Scanjet G4010. In addition, bight field images were obtained using an Olympus microscope (IX51, Olympus, Japan).
# To discover low-molecular-weight compounds that involved in the reprogramming of human somatic cells, reprogramming regulators of human skin fibroblasts were investigated by analog library screening of thirty selected novel trans-3-indoleacrylic acid-based compounds. Human skin fibroblasts were transfected with OSKM reprogramming virus, and after 5 days, the cells were seeded on Matrigel-coated 12-well plates and incubated in MEF-conditioned medium (CM) containing each of the low-molecular-weight compounds until colonies having a morphology similar to that of human embryonic stem cells were formed.
# [3] = system: human skin fibroblasts; experiment: MTT cytotoxicity assay; format: cell-based; conditions: concentration up to 50 μM, 72 hours after treatment (FIG. 9)
# Experimental: FIG. 9 is a graph showing the results of analyzing the effect of RSC-133 on the cytotoxicity of human skin fibroblasts. At 72 hours after treatment with various concentrations of RSC-133, cytotoxicity was measured by MTT (3-(4,5-dimethylthiazol-2-yl)-2,5-diphenyltetrazolium bromide (yellow tetrazole) assays. The values shown on the graph are mean values. The data are expressed as mean±SD (n=3).
# [4] = system: total HDAC enzymes; experiment: Activity of total HDAC enzymes during reprogramming; format: cell-based, human; conditions: during reprogramming (FIG. 19 left)
# Experimental: The values shown on the graph are mean values. The data are expressed as mean±SD (n=3) (*P<0.01, **P<0.005, by t-test).
# Next, whether the above-described results were results of the inhibition of HDAC enzyme by RSC-133 during reprogramming of human skin fibroblasts was examined. […] According to the experimental method shown in FIG. 21, the expression levels of HDAC-family proteins were measured, and as a result, it could be seen that the expression level of HDAC1 in the test group treated with RSC-133 was inhibited at 10 days after treatment with RSC-133 compared to that of the control group (the light panel of FIG. 19 and FIG. 21). It was reported that HDAC1 can occupy the Oct4, Sox2, Klf4 and c-Myc gene loci in embryonic stem cells and that the expression of pluripotency-specific marker genes in HDAC1-deleted embryonic stem cells is increased. Thus, it is believed that RSC-133 can inhibit the function of HDAC1 and increase the H3K9ace level to stimulate the reprogramming process.
structure (smiles),measurement,setting,value
"NC(=O)c1cccc(NC(=O)/C=C/c2c[nH]c3ccccc23)c1 [RSC-133, 3-[3-(1H-indol-3-yl)-acrylamido]-benzamide]","time of appearance of pluripotency-specific markers (Nanog, Tra1-81, Oct4, Rex1)","[1]; immunostaining and real-time PCR at various time points (FIGS. 15, 16)",appeared early than that in an untreated control group
same,"expression levels of undifferentiation markers Nanog, Oct4 and Rex1","[1]; real-time RT-PCR, cells harvested at 5-day intervals, presence vs absence of RSC-133 (FIG. 16)",relatively increased
same,"expression levels of p53, p21 and p16","[1]; real-time RT-PCR, presence vs absence of RSC-133 (FIG. 16 lower panel)",relatively inhibited
same,concentration that increases the efficiency of reprogramming to the highest level,"[2]; 0, 0.1, 1, 5, 10 and 20 μM tested",10 µM
same,efficiency of reprogramming at 20 μM versus 10 μM,[2]; 20 μM (FIG. 8),did not increase
same,"efficiency of reprogramming, hypoxic conditions","[2]; 5% O2, compared to control group (FIG. 4)",showed the effect of increasing the efficiency of reprogramming of human skin fibroblasts
same,"efficiency of reprogramming, normal conditions","[2]; 21% O2, compared to control group (FIG. 4)",showed the effect of increasing the efficiency of reprogramming of human skin fibroblasts
same,efficiency of reprogramming (alkaline phosphatase activity),"[2]; OSKM, MEF-CM, after 15 days, compared to control group (FIG. 3)",increased the efficiency of reprogramming of human skin fibroblasts
same,"effect on the promotion of reprogramming of human cells relative to AZA, VPA, TSA and SB431542","[2]; RSC 133 10 μM, AP-positive colonies, OSKM (FIG. 2b)",1.5-3.3 times
same,concentration dependence of the increase in efficiency of reprogramming,"[2]; treatment concentration of up to 10 μM, AP-positive colonies (FIG. 8)",concentration-dependent manner
same,"efficiency of reprogramming, continuous treatment",[2]; treatment throughout the reprogramming process (condition 1 in FIG. 10),increased to the highest level
same,cytotoxicity (MTT),[3],did not induce cytotoxicity
same,activity of total HDAC enzymes,[4],slightly inhibited
